Measured values as given in patent US6762188B1, “Pharmaceutically active benzoquinazoline compounds” (SmithKline Beecham Corporation, priority 1990, dated 2004).

Tested on: SW480 human colon adenocarcinoma
Assay: Tumor cell culture cytotoxicity (MTT dye reduction), SW480
Details: Homo sapiens, SW480, read-out: Cell Culture Cytotoxicity CCCT SW-480, Table F, fully aromatic p-aminobenzoylglutamates
Experimental: SW480 and WiDr colon adenocarcinomas, MCF-7 breast adenocarcinoma, A427 lung carcinoma and MOLT-4 T-cell leukemia were used for the primary screening of compounds. […] MCF-7, A427 and SW480 were grown in the above medium further supplemented with sodium pyruvate.
Cells are seeded into 96-well plates using a Perkin-Elmer Pro/pette. SW480 and A427 were seeded at 8,000 cells per well, MCF-7 at 10,000, Widr at 7500, and MOLT-4 at 12,500 cells per well, all in 150 µl of medium. Prior to the addition of drugs, cultures were incubated for 24 hrs at 37°. Compounds were added at 2×concentration in 150 l of medium and each concentration was assayed in triplicate. If DMSO or ethanol were used to solubilize compounds, appropriate controls were run if the concentration exceeded 0.01%. Cultures were incubated for 72 hours (96 hours for SW480 and MCF-7) in a 37° humidified incubator at 5% CO2. Inhibition of cell growth was measured using the MTT dye reduction assay.
Cell dilutions for a standard curve were prepared from a 72 hour log-phase culture. Serial dilutions were seeded in triplicate in 96-well plates and incubated at 37 degrees for one hour. MTT (3-(4,5-dimethylthiazol-2-yl)-2,5-diphenyltetrazolium bromide) was dissolved in PBS at 5 mg/ml and sonicated for 30 seconds. Using the Perkin Elmer Pro/pette, 200 μl of medium was removed and 100 μl of MTT added to the wells of the standard curve and test plates. Suspension cultures were spun for 5 min at 1000 rpm before removing medium from the wells. Plates were incubated for 1 hour at 370 on a platform shaker. Following this incubation 100 ml of medium was removed from the wells and 100 μl of DMSO added to each well. The plates were sonicated for approximately 10 seconds to solubilize the precipitated formazan dye. The absorbance of each well was measured using a Titertek Multiscan MC microtiter plate reader at 570 nm with a reference wavelength of 750 nm. Data was collected using a Mariachi Seed-2 and stored and analyzed using an IBM-AT and Lotus 1-2-3 software.

Structure (SMILES)	IC50 [µM]
Nc1nc2ccc3ccc(NS(=O)(=O)c4ccc(C(=O)N[C@@H](CCC(=O)O)C(=O)O)cc4)cc3c2c(=O)[nH]1 [N-(4-(((3-Amino-1,2-dihydro-1-oxobenzo(f)quinazolin-9-yl)amino)sulfonyl)benzoyl)-L-glutamic acid]	> 100

Same assay, conditions: Homo sapiens, SW480, read-out: Cell Culture Cytotoxicity CCCT SW-480, Table G, dihydrobenzoquinazoline p-aminobenzoylglutamates

Structure (SMILES)	IC50 [µM]
Cc1nc2c(c(=O)[nH]1)-c1cc(S(=O)(=O)N(C)c3ccc(C(=O)N[C@@H](CCC(=O)O)C(=O)O)cc3)ccc1CC2 [N-(4-(Methyl((1,2,5,6-tetrahydro-3-methyl-1-oxobenzo(f)quinazolin-9-yl)sulfonyl)amino)benzoyl)-L-glutamic acid]	> 50

Same assay, conditions: Homo sapiens, SW480, read-out: Tumor Cell Culture Cytotoxicity IC50 SW480, Table B, fully aromatic 3-amino derivatives

Structure (SMILES)	IC50 [µM]
C=Cc1ccc2ccc3nc(N)[nH]c(=O)c3c2c1 [Example 9-Ethenyl, 3-Amino-9-vinylbenzo[f]quinazolin-1(2H)-one]	6

Same assay, conditions: Homo sapiens, SW480, read-out: Tumor Cell Culture Cytotoxicity IC50 SW480, Table C, 5,6-dihydro 3-amino derivatives

Structure (SMILES)	IC50 [µM]
CCN(CC)S(=O)(=O)c1cc2c(cc1Br)CCc1nc(N)[nH]c(=O)c1-2 [3-Amino-8-bromo-N,N-diethyl-1,2,5,6-tetrahydro-1-oxobenzo(f)quinazoline-9-sulfonamide]	7.5

Same assay, conditions: Homo sapiens, SW480, read-out: Tumor Cell Culture Cytotoxicity IC50 SW480, Table E, fully aromatic 3-methyl derivatives

Structure (SMILES)	IC50 [µM]
Cc1nc2ccc3ccc(CNc4ccc(C(=O)CC(CCC(=O)O)C(=O)O)cc4)cc3c2c(=O)[nH]1 (racemic) [(RS)-2-(2-(4-(((1,2-Dihydro-3-methyl-1-oxobenzo[f]quinazolin-9-yl)methyl)amino)phenyl)-2-oxoethyl)glutaric acid]	0.03
Cc1nc2ccc3ccc(CNc4ccccc4)cc3c2c(=O)[nH]1 [3-Methyl-9-(anilinomethyl)benzo(f)quinazolin-1(2H)-one]	7
Cc1nc2ccc3ccc(CNc4ccc(C(=O)O)cc4)cc3c2c(=O)[nH]1 [4-(((1,2-Dihydro-3-methyl-1-oxobenzo[f]quinazolin-9-yl)methyl)amino)benzoic acid]	2.2

Same assay, conditions: read-out: Tumor Cell Culture Cytotoxicity IC50 SW480; Table C, 5,6-dihydro 3-amino derivatives

Structure (SMILES)	IC50 [µM]
C#CCN(CC#C)S(=O)(=O)c1ccc2c(c1)CCc1nc(N)[nH]c(=O)c1-2 [8-SO2N-(Propargyl)2, 3-Amino-1,2,5,6-tetrahydro-1-oxo-N,N-bis(prop-2-vnyl)benzo[f]quinazoline-8-sulfonamide]	60

Biological target: T1, Mammalian Thymidylate Synthase (Homo sapiens, UniProt P04818)
T1 construct: made in house; host or cells: Escherichia coli
T1 sequence (P04818 whole entry): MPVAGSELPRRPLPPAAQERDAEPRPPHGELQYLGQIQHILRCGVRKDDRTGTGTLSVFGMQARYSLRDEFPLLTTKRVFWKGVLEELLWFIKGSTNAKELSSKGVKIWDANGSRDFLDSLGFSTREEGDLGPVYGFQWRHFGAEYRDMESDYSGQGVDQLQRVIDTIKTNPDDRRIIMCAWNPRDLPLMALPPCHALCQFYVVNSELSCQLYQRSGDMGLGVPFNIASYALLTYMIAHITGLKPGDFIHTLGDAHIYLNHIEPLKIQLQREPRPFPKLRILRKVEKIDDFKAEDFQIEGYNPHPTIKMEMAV
Assay: Thymidylate synthase inhibition, tritium release assay
Type: biochemical
Details: not given

Structure (SMILES)	IC50 [nM]
COc1ccc2ccc3nc(N)[nH]c(=O)c3c2c1 [3-Amino-9-methoxybenzo(f)quinazolin-1(2H)-one]	1000 to 300000
Nc1nc(O)c2c(ccc3ccc(Br)cc32)n1 [3-Amino-9-bromobenzo(f)quinazolin-1(2H)-one]	< 1000
Nc1nc2ccc3ccc(NS(=O)(=O)c4ccc(C(=O)O)cc4)cc3c2c(=O)[nH]1 [4-(((3-Amino-1,2-dihydro-1-oxobenzo(f)quinazolin-9-yl)amino)sulfonyl)benzoic acid]	< 1000
Nc1nc(O)c2c(ccc3ccc(I)cc32)n1 [3-Amino-9-iodobenzo(f)quinazolin-1(2H)-one]	< 1000
Nc1nc(O)c2c(ccc3ccc(F)cc32)n1 [3-Amino-9-fluorobenzo(f)quinazolin-1(2H)-one]	< 1000
Nc1nc2ccc3cc(Cl)c(Cl)cc3c2c(=O)[nH]1 [3-Amino-8,9-dichlorobenzo(f)quinazolin-1(2H)-one]	< 1000
Nc1nc2c(c(=O)[nH]1)-c1ccc(S(N)(=O)=O)cc1CC2 [3-Amino-1,2,5,6-tetrahydro-1-oxobenzo(f)quinazoline-8-sulfonamide]	1000 to 300000
CCOc1ccc2ccc3nc(N)[nH]c(=O)c3c2c1 [3-Amino-9-ethoxybenzo(f)quinazolin-1(2H)-one]	1000 to 300000
CN(C)S(=O)(=O)c1ccc2ccc3nc(N)[nH]c(=O)c3c2c1 [3-Amino-N,N-dimethyl-1,2-dihydro-1-oxobenzo(f)quinazoline-9-sulfonamide]	1000 to 300000
Nc1nc2ccc3cc([N+](=O)[O-])c(Br)cc3c2c(=O)[nH]1 [3-Amino-9-bromo-8-nitrobenzo(f)quinazolin-1(2H)-one]	1000 to 300000
Nc1nc(O)c2c(n1)CCc1cc([N+](=O)[O-])ccc1-2 [3-Amino-5,6-dihydro-8-nitro(f)quinazolin-1(2H)-one]	1000 to 300000
Nc1nc(O)c2c(ccc3cc(N)c(Br)cc32)n1 [3,8-Diamino-9-bromobenzo(f)quinazolin-1(2H)-one]	< 1000
Nc1nc2ccc3ccc(Cl)cc3c2c(=O)[nH]1 [3-Amino-9-chlorobenzo(f)quinazolin-1(2H)-one]	< 1000
Nc1nc2ccc3cc(F)ccc3c2c(=O)[nH]1 [3-Amino-8-fluorobenzo(f)quinazolin-1(2H)-one]	1000 to 300000
Cc1nc2c(c(=O)[nH]1)-c1cc(S(=O)(=O)Cl)ccc1CC2 [1,2,5,6-Tetrahydro-3-methyl-1-oxobenzo(f)quinazoline-9-sulfonylchloride]	1000 to 300000
C#Cc1ccc2ccc3nc(N)[nH]c(=O)c3c2c1 [3-Amino-9-ethynylbenzo(f)quinazolin-1(2H)-one]	< 1000
Cc1nc2ccc3ccc(S(=O)(=O)Nc4ccc(C(=O)N[C@@H](CCC(=O)O)C(=O)O)cc4)cc3c2c(=O)[nH]1 [N-(4-((1,2-Dihydro-3-methyl-1-oxabenzo(f)quinazolin-9-yl)sulfonamido)benzoyl)-L-glutamic acid]	< 1000

Same assay, conditions: Table A; vs. mammalian enzymes; read-out: I50

Structure (SMILES)	IC50 [nM]
CC1Cc2nc(N)nc(O)c2-c2cc(Cl)ccc21 (stereo not drawn) [3-Amino-9-chloro-5,6-dihydro-6-methylbenzo(f)quinazolin-1(2H)-one]	< 1000
CC1Cc2nc(N)nc(O)c2-c2ccc(Cl)cc21 (stereo not drawn) [3-Amino-8-chloro-5,6-dihydro-6-methylbenzo(f)quinazolin-1(2H)-one]	1000 to 300000
Nc1nc2c(c(=O)[nH]1)-c1cccc(F)c1CC2 [3-Amino-7-fluoro-5,6-dihydrobenzo(f)quinazolin-1(2H)-one]	1000 to 300000
CC1(C)Cc2nc(N)nc(O)c2-c2ccccc21 [3-Amino-5,6-dihydro-6,6-dimethylbenzo(f)quinazolin-1(2H)-one]	1000 to 300000
Cc1cc2nc(N)[nH]c(=O)c2c2ccc(Cl)cc12 [3-Amino-8-chloro-6-methylbenzo(f)quinazolin-1(2H)-one]	1000 to 300000
CSc1ccc2ccc3nc(N)nc(O)c3c2c1 [3-Amino-9-(methylthio)benzo(f)quinazolin-1(2H)-one]	< 1000
Nc1nc(O)c2c(cc(CO)c3ccccc32)n1 [3-Amino-6-(hydroxymethyl)benzo(f)quinazolin-1(2H)-one]	1000 to 300000
Nc1nc(O)c2c(ccc3c(N)cccc32)n1 [3,7-Diaminobenzo(f)quinazolin-1(2H)-one]	1000 to 300000
Cc1ccc2c(c1)-c1c(O)nc(N)nc1CC2 [3-Amino-5,6-dihydro-9-methylbenzo(f)quinazolin-1(2H)-one]	< 1000
Nc1nc2c(c(=O)[nH]1)-c1ccc(Cl)cc1CC2 [3-Amino-8-chloro-5,6-dihydrobenzo(f)quinazolin-1(2H)-one]	1000 to 300000
Nc1nc(O)c2c(ccc3cc(Br)c([N+](=O)[O-])cc32)n1 [3-Amino-8-bromo-9-nitrobenzo(f)quinazolin-1(2H)-one]	1000 to 300000
Cc1cc(C)c2c(c1)-c1c(nc(N)[nH]c1=O)CC2 [3-Amino-5,6-dihydro-7,9-dimethylbenzo(f)quinazolin-1(2H)-one]	1000 to 300000
Nc1ccc2c(c1)CCc1nc(N)[nH]c(=O)c1-2 [3,8-Diamino-5,6-dihydrobenzo(f)quinazolin-1(2H)-one]	1000 to 300000
Cc1cc2nc(N)[nH]c(=O)c2c2ccccc12 [3-Amino-6-methylbenzo(f)quinazolin-1(2H)-one]	1000 to 300000
Nc1ccc2c(c1)-c1c(nc(N)[nH]c1=O)CC2 [3,9-Diamino-5,6-dihydrobenzo(f)quinazolin-1(2H)-one]	1000 to 300000
Nc1nc2c(c(=O)[nH]1)-c1cc(O)ccc1CC2 [3-Amino-5,6-dihydro-9-hydroxybenzo(f)quinazolin-1(2H)-one]	1000 to 300000
Nc1nc2ccc3c(Br)c(N)c(Br)cc3c2c(=O)[nH]1 [3,8-Diamino-7,9-dibromobenzo(f)quinazolin-1(2H)-one]	1000 to 300000
Cc1cccc2c1CCc1nc(N)[nH]c(=O)c1-2 [3-Amino-5,6-dihydro-7-methylbenzo(f)quinazolin-1(2H)-one]	1000 to 300000
CC1Cc2nc(N)nc(O)c2-c2ccccc21 (stereo not drawn) [3-Amino-5,6-dihydro-6-methylbenzo(f)quinazolin-1(2H)-one]	1000 to 300000
CCSc1ccc2ccc3nc(N)nc(O)c3c2c1 [3-Amino-9-(ethylthio)benzo(f)quinazolin-1(2H)-one]	1000 to 300000
Cc1cc(C)c2ccc3nc(N)[nH]c(=O)c3c2c1 [3-Amino-7,9-dimethylbenzo(f)quinazolin-1(2H)-one]	1000 to 300000
Cc1nc2c(c(=O)[nH]1)-c1cccc(Cl)c1CC2 [7-Chloro-5,6-dihydro-3-methylbenzo(f)quinazolin-1(2H)-one]	1000 to 300000
Nc1nc2ccc3cc(Cl)ccc3c2c(=O)[nH]1 [3-Amino-8-chlorobenzo(f)quinazolin-1(2H)-one]	1000 to 300000
Nc1nc(O)c2c(ccc3cccc(N)c32)n1 [3,10-diaminobenzo(f)quinazolin-1(2H)-one]	1000 to 300000
Nc1nc2ccc3cccc([N+](=O)[O-])c3c2c(=O)[nH]1 [3-Amino-10-nitrobenzo(f)quinazolin-1(2H)-one]	1000 to 300000
Nc1nc2ccc3cc([N+](=O)[O-])cc([N+](=O)[O-])c3c2c(=O)[nH]1 [3-Amino-8,10-dinitrobenzo(f)quinazolin-1(2H)-one]	1000 to 300000
Nc1nc2c(c(=O)[nH]1)-c1cccc(Br)c1CC2 [3-Amino-7-bromo-5,6-dihydrobenzo(f)quinazolin-1(2H)-one]	1000 to 300000
Nc1nc(O)c2c(n1)CCc1c(I)cccc1-2 [3-Amino-5,6-dihydro-7-iodobenzo(f)quinazolin-1(2H)-one]	1000 to 300000
Nc1cc(N)c2c(ccc3nc(N)[nH]c(=O)c32)c1 [3,8,10-Triaminobenzo(f)quinazolin-1(2H)-one]	1000 to 300000
